The record followed here is patent US10870647B2, “Imidazopyridine derivative, method for preparing same, and pharmaceutical composition containing same as active ingredient for preventing or treating cancer” (DAEGU-GYEONGBUK MEDICAL INNOVATION FOUNDATION, priority 2016, dated 2020).

Common to all, as to assay: Kinase selectivity, scanMAX Kinase assay panel (DiscoverX), % control at 1 uM
What all share (format): binding

Assay [1] addresses T1, scanMAX Kinase assay panel (Homo sapiens, UniProt Q9UKI8).
T1 construct: purchased DiscoverX
T1 sequence (Q9UKI8 1-766): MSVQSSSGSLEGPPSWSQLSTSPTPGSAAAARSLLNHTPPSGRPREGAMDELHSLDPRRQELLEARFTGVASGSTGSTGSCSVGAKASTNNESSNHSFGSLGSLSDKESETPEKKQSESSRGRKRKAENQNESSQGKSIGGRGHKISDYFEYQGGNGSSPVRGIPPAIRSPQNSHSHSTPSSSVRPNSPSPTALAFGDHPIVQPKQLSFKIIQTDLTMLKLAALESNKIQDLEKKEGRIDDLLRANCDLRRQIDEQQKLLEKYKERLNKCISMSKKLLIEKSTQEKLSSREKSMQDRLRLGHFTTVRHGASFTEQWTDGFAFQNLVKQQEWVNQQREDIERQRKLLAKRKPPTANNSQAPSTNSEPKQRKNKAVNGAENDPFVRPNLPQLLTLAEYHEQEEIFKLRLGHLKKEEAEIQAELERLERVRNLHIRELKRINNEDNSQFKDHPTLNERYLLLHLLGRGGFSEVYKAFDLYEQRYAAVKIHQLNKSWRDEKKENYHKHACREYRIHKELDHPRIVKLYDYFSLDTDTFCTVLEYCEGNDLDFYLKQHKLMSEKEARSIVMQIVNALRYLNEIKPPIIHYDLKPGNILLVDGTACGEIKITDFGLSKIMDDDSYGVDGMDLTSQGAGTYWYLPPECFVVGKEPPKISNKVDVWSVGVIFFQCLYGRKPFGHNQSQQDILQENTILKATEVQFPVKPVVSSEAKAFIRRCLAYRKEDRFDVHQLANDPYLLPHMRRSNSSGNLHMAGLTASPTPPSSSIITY
The note with it: TLK1; 1 uM; read-out: Percent Control (%). The method, boiled down:
(§1)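 Binding across the scanMAX kinase panel was tested at 1 uM compound. % control = (compound − positive control)/(negative control − positive control) × 100; below 35 counted as active.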

Assay [2] addresses T2, scanMAX Kinase assay panel (Homo sapiens, UniProt P29376).
T2 construct: purchased DiscoverX
The conditions noted are these: LTK; 1 uM; read-out: Percent Control (%). In short, it runs like this:
as §1

Assay [3] has as its target T3, scanMAX Kinase assay panel (Homo sapiens, UniProt Q00526).
T3 construct: purchased DiscoverX
The conditions noted are these: CDK3; 1 uM; read-out: Percent Control (%). In short, it runs like this:
as §1

In assay [4] the target is T4, scanMAX Kinase assay panel (Homo sapiens, UniProt P36888, N841I).
T4 construct: purchased DiscoverX
T4 sequence (P36888 27-993 N841I): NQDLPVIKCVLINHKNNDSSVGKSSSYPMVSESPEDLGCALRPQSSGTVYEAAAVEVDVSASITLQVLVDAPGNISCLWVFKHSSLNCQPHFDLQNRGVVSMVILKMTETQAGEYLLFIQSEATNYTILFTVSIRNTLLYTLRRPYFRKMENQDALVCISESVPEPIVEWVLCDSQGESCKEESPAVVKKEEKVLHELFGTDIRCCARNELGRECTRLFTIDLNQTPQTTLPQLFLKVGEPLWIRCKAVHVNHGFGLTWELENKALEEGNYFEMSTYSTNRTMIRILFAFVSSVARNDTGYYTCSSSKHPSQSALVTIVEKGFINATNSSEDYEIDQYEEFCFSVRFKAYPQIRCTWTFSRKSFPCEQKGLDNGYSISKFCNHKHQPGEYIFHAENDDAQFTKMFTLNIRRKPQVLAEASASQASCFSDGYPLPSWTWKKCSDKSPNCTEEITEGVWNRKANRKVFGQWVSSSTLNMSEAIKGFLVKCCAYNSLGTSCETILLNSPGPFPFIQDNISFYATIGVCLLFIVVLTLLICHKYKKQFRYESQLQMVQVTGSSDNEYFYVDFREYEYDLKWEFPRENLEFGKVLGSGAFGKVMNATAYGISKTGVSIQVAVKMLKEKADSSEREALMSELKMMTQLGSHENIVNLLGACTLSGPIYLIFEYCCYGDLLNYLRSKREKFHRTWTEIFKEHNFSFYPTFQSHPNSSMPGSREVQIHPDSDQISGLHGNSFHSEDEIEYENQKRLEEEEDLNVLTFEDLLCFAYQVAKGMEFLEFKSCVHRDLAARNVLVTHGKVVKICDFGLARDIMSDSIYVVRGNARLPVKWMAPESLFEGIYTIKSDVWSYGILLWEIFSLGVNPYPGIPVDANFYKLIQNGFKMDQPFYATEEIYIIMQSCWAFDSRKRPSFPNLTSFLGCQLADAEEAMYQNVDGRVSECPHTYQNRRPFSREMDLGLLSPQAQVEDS
The note with it: FLT3 (N841I); 1 uM; read-out: Percent Control (%). In short, it runs like this: as §1

Assay [5] addresses T5, scanMAX Kinase assay panel (Homo sapiens, UniProt Q9HBH9).
T5 construct: purchased DiscoverX
The conditions noted are these: MKNK2; 1 uM; read-out: Percent Control (%). In short, it runs like this: as §1

The target in assay [6] is T6, scanMAX Kinase assay panel (Homo sapiens, UniProt Q99759).
T6 construct: purchased DiscoverX
T6 sequence (Q99759 1-626): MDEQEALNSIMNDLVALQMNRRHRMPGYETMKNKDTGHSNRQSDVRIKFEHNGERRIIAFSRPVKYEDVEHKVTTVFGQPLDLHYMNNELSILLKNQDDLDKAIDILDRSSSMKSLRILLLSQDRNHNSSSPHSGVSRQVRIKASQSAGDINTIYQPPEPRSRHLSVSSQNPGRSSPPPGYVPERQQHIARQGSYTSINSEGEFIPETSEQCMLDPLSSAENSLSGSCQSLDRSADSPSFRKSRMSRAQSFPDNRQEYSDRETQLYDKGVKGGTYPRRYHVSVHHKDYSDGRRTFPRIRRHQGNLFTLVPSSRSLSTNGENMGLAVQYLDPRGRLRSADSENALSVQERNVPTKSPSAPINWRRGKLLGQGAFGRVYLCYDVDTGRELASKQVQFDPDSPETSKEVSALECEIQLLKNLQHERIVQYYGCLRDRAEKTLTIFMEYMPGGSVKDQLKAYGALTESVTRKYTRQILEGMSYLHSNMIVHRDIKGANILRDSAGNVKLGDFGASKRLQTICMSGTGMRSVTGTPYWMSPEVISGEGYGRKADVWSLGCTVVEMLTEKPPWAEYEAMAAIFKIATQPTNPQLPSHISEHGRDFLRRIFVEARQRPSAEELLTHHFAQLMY
The note with it: MAP3K3; 1 uM; read-out: Percent Control (%). The method, boiled down: as §1

Structures are written as SMILES.

T5 sequence (Q9HBH9 whole entry): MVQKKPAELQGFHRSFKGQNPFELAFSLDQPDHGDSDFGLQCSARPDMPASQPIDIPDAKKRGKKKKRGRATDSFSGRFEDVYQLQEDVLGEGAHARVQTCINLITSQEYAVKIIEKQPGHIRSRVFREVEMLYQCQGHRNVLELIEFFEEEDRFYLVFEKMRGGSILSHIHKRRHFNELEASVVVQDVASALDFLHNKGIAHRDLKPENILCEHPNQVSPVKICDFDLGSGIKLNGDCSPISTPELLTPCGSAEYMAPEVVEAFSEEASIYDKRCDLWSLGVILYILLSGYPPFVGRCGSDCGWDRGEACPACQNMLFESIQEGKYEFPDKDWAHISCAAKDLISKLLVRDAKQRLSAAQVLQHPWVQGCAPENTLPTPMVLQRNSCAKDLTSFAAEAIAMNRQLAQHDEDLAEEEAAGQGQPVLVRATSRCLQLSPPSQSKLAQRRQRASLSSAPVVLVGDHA
T2 sequence (P29376 17-864): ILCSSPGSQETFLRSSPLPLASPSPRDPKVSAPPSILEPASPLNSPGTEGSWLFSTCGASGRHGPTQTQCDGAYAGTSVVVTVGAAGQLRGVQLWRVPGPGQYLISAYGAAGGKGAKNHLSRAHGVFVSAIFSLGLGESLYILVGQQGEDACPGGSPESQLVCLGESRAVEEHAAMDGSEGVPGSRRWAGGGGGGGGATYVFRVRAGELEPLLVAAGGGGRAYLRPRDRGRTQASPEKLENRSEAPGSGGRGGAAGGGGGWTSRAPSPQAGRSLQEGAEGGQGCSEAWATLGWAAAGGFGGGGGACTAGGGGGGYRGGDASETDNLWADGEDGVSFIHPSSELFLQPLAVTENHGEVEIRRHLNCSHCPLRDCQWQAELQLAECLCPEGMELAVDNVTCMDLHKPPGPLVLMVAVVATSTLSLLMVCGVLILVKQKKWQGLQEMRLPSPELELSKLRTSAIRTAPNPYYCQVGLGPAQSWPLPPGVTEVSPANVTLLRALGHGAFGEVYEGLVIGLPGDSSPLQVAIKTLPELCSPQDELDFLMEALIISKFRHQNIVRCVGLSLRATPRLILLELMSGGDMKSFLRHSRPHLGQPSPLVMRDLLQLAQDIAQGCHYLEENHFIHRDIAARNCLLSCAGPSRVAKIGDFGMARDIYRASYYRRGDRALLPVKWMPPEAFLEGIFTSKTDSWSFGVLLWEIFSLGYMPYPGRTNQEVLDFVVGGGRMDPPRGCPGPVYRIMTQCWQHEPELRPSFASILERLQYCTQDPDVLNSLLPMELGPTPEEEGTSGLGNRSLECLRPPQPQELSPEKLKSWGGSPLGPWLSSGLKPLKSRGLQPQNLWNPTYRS
T3 sequence (Q00526 whole entry): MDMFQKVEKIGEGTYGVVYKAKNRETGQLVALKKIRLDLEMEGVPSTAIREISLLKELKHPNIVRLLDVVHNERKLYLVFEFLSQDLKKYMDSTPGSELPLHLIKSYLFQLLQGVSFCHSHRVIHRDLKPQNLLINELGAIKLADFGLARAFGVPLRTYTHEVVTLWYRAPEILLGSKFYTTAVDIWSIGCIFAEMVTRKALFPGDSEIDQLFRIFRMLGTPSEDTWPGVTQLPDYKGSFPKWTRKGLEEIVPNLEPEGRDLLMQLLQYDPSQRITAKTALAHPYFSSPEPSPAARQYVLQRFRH

For the compound `Cc1ccc(C(=O)Nc2ccc(CN3CCN(C)CC3)c(C(F)(F)F)c2)cc1C#Cc1cnc2c(Nc3cnn(C)c3)cccn12` [Example 1, 4-methyl-3-((8-((1-methyl-1H-pyrazol-4-yl)amino)imidazo[1,2-a]pyridin-3-yl)ethynyl)-N-(4-((4-methylpiperazin-1-yl)methyl)-3-(trifluoromethyl)phenyl)benzamide], the remaining binding at 1 µM stood at 93% in assay [1]; 9% in assay [2]; 62% in assay [3]; 0% in assay [4]; 2% in assay [5]; 0% in assay [6].

`Cc1ccc(NC(=O)C2(C(=O)Nc3ccc(F)cc3)CC2)cc1C#Cc1cnc2c(Nc3cnn(C(C)C)c3)cccn12` [Example 78]: the remaining binding at 1 µM turned out to be 96% in assay [1]; 94% in assay [2]; 86% in assay [3]; 59% in assay [4]; 100% in assay [5]; 77% in assay [6].

As to `Cc1cn(-c2cc(NC(=O)c3ccc(C)c(C#Cc4cnc5c(Nc6cnn(C)c6)cccn45)c3)cc(C(F)(F)F)c2)cn1` [Example 12, 4-methyl-N-(3-(4-methyl-1H-imidazol-1-yl)-5-(trifluoromethyl)phenyl)-3-((8-((1-methyl-1H-pyrazol-4-yl)amino)imidazo[1,2-a]pyridin-3-yl)ethynyl)benzamide], the remaining binding at 1 µM in assay [1] was 75%; in assay [2], 12%; in assay [3], 89%; in assay [4], 28%; in assay [5] it was 78%; in assay [6], 33%.
